Experimental data as given in publication PMC9311539, “Antibacterial Activity against Clinical Isolates and In Vivo Efficacy of Coralmycins” (Antibiotics, 2022).
Converted amounts (≈) assume the structure as drawn. Where two headings read alike, the source gives them in different places.

Legend:
MSSA = assay: MIC, broth microdilution, clinical isolates: MSSA; format: cell-based; conditions: Staphylococcus aureus
Method: (§1) To assess the MICs for antibiotic susceptibility, Gram-positive bacteria isolated from human clinical specimens were obtained from several general hospitals in Seoul, Korea, during 2002–2018. Staphylococcus aureus Giorgio and Streptococcus pneumoniae ATCC49619 were used to test in vivo efficacies against […], in mice.
(§2) The MICs of the antimicrobial agents were determined by a twofold microdilution broth method, as described by the Clinical and Laboratory Standards Institute. Briefly, test organisms were grown on Mueller–Hinton agar (MHA, BD Difco, Sparks, MD, USA) plates, subcultured into cation-adjusted Mueller–Hinton broth (CAMHB, BD Difco, Sparks, MD, USA), and incubated for 18 h at 35 °C. For S. pneumoniae culture, 5% sheep blood (Hanil Comed, Seongnam, Korea) was added. The cultured bacteria were diluted using phosphate-buffered saline (PBS) to achieve a bacterial cell density of approximately 5 × 10^6 CFU/mL. All test organisms were loaded into 96-well plates containing serial dilutions of the antimicrobial agents to achieve a concentration of 5 × 10^4 CFU/well. The plates were incubated at 35 °C for 18–20 h and examined for bacterial growth.

MRSA = assay: MIC, broth microdilution, clinical isolates: MRSA; format: cell-based, Staphylococcus aureus; conditions: Staphylococcus aureus, MRSA
Method: as §1, §2

[1] = test system: CNS (coagulase-negative staphylococci); assay: MIC, broth microdilution, clinical isolates: CNS; format: cell-based
Method: as §1, §2

VRE = assay: MIC, broth microdilution, clinical isolates: VRE; format: cell-based, vancomycin-resistant Enterococcus
Method: as §1, §2

S. pneumoniae = assay: MIC, broth microdilution, clinical isolates: S. pneumoniae; format: cell-based, Streptococcus pneumoniae
Method: as §1, §2

[2] = test system: Vancomycin-sensitive E. faecalis; assay: MIC, broth microdilution, clinical isolates: vancomycin-sensitive E. faecalis; format: cell-based, Enterococcus faecalis; conditions: Enterococcus faecalis
Method: as §1, §2

[3] = test system: Vancomycin-sensitive E. faecium; assay: MIC, broth microdilution, clinical isolates: vancomycin-sensitive E. faecium; format: cell-based, Enterococcus faecium; conditions: Enterococcus faecium
Method: as §1, §2

S. aureus Giorgio [4] = assay: MIC against S. aureus Giorgio; format: cell-based, Staphylococcus aureus; conditions: Staphylococcus aureus
Method: as §2

S. pneumoniae ATCC49619 [5] = assay: MIC against S. pneumoniae ATCC49619; format: cell-based; conditions: Streptococcus pneumoniae, ATCC49619
Method: as §2

MRSA CCARM 3167 [6] = assay: MIC against MRSA CCARM 3167; format: cell-based; conditions: Staphylococcus aureus
Method: as §2

VRE 3 [7] = assay: MIC against VRE 3; format: cell-based, vancomycin-resistant Enterococcus; conditions: Enterococcus
Method: as §2

S. aureus Giorgio [8] = assay: Time-kill assay, S. aureus Giorgio; format: cell-based, Staphylococcus aureus; conditions: 2× and 4× MIC, 24 h
Method: (§3) Time-kill analysis was performed by the NCCLS M26-A method. The test organisms (S. aureus Giorgio, S. pneumoniae ATCC49619, MRSA CCARM 3167, and VRE 3) incubated in CAMHB for 18 h at 35 °C were diluted to 10^5 CFU/mL with fresh CAMHB, and the diluted cultures were preincubated for 2 h. For S. pneumoniae culture, 5% sheep blood (Hanil Comed, Seongnam, Korea) was added. […] Culture aliquots (0.1 mL) were removed after 0, 2, 4, 6 and 24 h of incubation, and serial 10-fold dilutions were prepared in saline as needed. The numbers of viable cells were determined on drug-free MHA plates after 20 h of incubation. A compound was considered bactericidal if the original inoculum was reduced by 3 log CFU/mL (99.9%) at each concentration or was considered bacteriostatic if the inoculum was reduced by 0–3 log CFU/mL.

S. pneumoniae ATCC49619 [9] = assay: Time-kill assay, S. pneumoniae ATCC49619; format: cell-based, Streptococcus pneumoniae; conditions: 2× and 4× MIC, 24 h
Method: as §3

MRSA CCARM 3167 [10] = assay: Time-kill assay, MRSA CCARM 3167; format: cell-based, Staphylococcus aureus; conditions: 2× and 4× MIC, 24 h
Method: as §3

VRE 3 [11] = assay: Time-kill assay, VRE 3; format: cell-based, vancomycin-resistant Enterococcus; conditions: 2× and 4× MIC, 24 h
Method: as §3

S. pneumoniae ATCC49619 [12] = assay: Neutropenic mouse respiratory tract infection model; format: in vivo, female ICR mice; conditions: for reduction of the starting bacterial burden compared to the 2-h control group: second trial, 20 mg/kg bid
Method: (§4) For the respiratory tract infection model, neutropenic mice were anesthetized and intranasally inoculated with a 50 μL suspension of S. pneumoniae ATCC49619 (4.4 × 10^8 CFU/mL). For the thigh infection model, the neutropenic mice were administered an intramuscular injection of a 100 μL suspension of S. aureus Giorgio (1 × 10^6 CFU/mL) into both thighs. For both models, four mice were included in each group. At 2 h after infection, two mice were sacrificed, and the infected thighs or lungs (n = 4) were excised to determine the initial bacterial levels. […] At 24 h after infection, the mice were sacrificed by cervical dislocation; their thighs or lungs were removed, homogenized, serially diluted with saline, and plated onto MHA to count the number of bacteria remaining. The number of viable bacterial cells (CFU) in the thighs or lungs of vehicle- and drug-treated mice was determined.

[13] = cited from earlier work
S. aureus Giorgio [14] = assay: Neutropenic mouse thigh infection model; format: in vivo, female ICR mice; conditions: s.c. 4 and 20 mg/kg at 3 and 6 h after infection
Method: as §4

S. aureus = test system: S. aureus; set-up: method as in PMID 28416551; conditions: s.c., cited from earlier work
[15] = 32 clinical isolates, read-out: MIC50
[16] = 32 clinical isolates, read-out: MIC90

CC(=O)NC[C@H]1CN(c2ccc(N3CCOCC3)c(F)c2)C(=O)O1 [Linezolid]
MIC50 (MSSA; 26 clinical isolates, read-out: MIC50): 2 µg/mL (≈ 5.93 µM) | MIC90 (MSSA; 26 clinical isolates, read-out: MIC90): 2 µg/mL (≈ 5.93 µM) | MIC50 (MRSA; 42 clinical isolates, read-out: MIC50): 2 µg/mL (≈ 5.93 µM) | MIC90 (MRSA; 42 clinical isolates, read-out: MIC90): 4 µg/mL (≈ 11.9 µM) | MIC50 ([1]; 31 clinical isolates, read-out: MIC50): 2 µg/mL (≈ 5.93 µM) | MIC90 ([1]; 31 clinical isolates, read-out: MIC90): 4 µg/mL (≈ 11.9 µM) | MIC90 (VRE; 46 clinical isolates): 4 µg/mL (≈ 11.9 µM) | MIC50 (VRE; Enterococcus, VRE, 46 clinical isolates, read-out: MIC50): 2 µg/mL (≈ 5.93 µM) | MIC90 (VRE; Enterococcus, 46 VRE isolates, read-out: MIC90): 4 µg/mL (≈ 11.9 µM) | MIC90 (S. pneumoniae; 27 clinical isolates): 4 µg/mL (≈ 11.9 µM) | MIC90 (S. pneumoniae; Streptococcus pneumoniae, 27 S. pneumoniae isolates, read-out: MIC90): 4 µg/mL (≈ 11.9 µM) | MIC50 (S. pneumoniae; Streptococcus pneumoniae, 27 clinical isolates, read-out: MIC50): 2 µg/mL (≈ 5.93 µM) | MIC50 [2, 15]: 2 µg/mL (≈ 5.93 µM) | MIC90 [2, 16]: 4 µg/mL (≈ 11.9 µM) | MIC50 [3, 15]: 2 µg/mL (≈ 5.93 µM) | MIC90 [3, 16]: 4 µg/mL (≈ 11.9 µM) | MIC (S. aureus Giorgio [4]; read-out: MIC): 2 µg/mL (≈ 5.93 µM) | MIC (S. pneumoniae ATCC49619 [5]; read-out: MIC): 2 µg/mL (≈ 5.93 µM) | MIC (MRSA CCARM 3167 [6]; read-out: MIC): 1 µg/mL (≈ 2.96 µM) | MIC (VRE 3 [7]; read-out: MIC): 2 µg/mL (≈ 5.93 µM) | time-kill activity (S. aureus Giorgio [8]): bacteriostatic (considered bacteriostatic if the inoculum was reduced by 0–3 log CFU/mL) | time-kill activity (S. pneumoniae ATCC49619 [9]): bacteriostatic (considered bacteriostatic if the inoculum was reduced by 0–3 log CFU/mL) | time-kill activity (MRSA CCARM 3167 [10]): bacteriostatic (considered bacteriostatic if the inoculum was reduced by 0–3 log CFU/mL) | time-kill activity (VRE 3 [11]): bacteriostatic (considered bacteriostatic if the inoculum was reduced by 0–3 log CFU/mL) | in vivo effect (bacteriostatic or bactericidal) (S. pneumoniae ATCC49619 [12]; 4 mg/kg bid s.c.): bacteriostatic | in vivo effect (bacteriostatic or bactericidal) (S. pneumoniae ATCC49619 [12]; 20 mg/kg bid s.c.): bactericidal | reduction of the starting bacterial burden compared to the 2-h control group (S. pneumoniae ATCC49619 [12]): 0.75 log10 CFU/lung | bound to plasma proteins [13]: 18%

CN[C@H](CC(C)C)C(=O)N[C@H]1C(=O)N[C@@H](CC(N)=O)C(=O)N[C@H]2C(=O)N[C@H]3C(=O)N[C@H](C(=O)N[C@H](C(=O)O)c4cc(O)cc(O)c4-c4cc3ccc4O)[C@H](O)c3ccc(c(Cl)c3)Oc3cc2cc(c3O[C@@H]2O[C@H](CO)[C@@H](O)[C@H](O)[C@H]2O[C@H]2C[C@](C)(N)[C@H](O)[C@H](C)O2)Oc2ccc(cc2Cl)[C@H]1O [Vancomycin]
MIC50 (MSSA): 1 µg/mL (≈ 0.69 µM) | MIC90 (MSSA): 2 µg/mL (≈ 1.38 µM) | MIC50 (MRSA): 1 µg/mL (≈ 0.69 µM) | MIC90 (MRSA): 2 µg/mL (≈ 1.38 µM) | MIC50 [1]: 2 µg/mL (≈ 1.38 µM) | MIC90 [1]: 4 µg/mL (≈ 2.76 µM) | MIC50 (VRE; Enterococcus, VRE): > 32 µg/mL | MIC90 (VRE; Enterococcus, VRE): > 32 µg/mL | MIC90 (S. pneumoniae; 27 clinical isolates): 0.5 µg/mL (≈ 0.345 µM) | MIC50 (S. pneumoniae; Streptococcus pneumoniae): 0.25 µg/mL (≈ 0.173 µM) | MIC90 (S. pneumoniae; Streptococcus pneumoniae): 0.5 µg/mL (≈ 0.345 µM) | MIC50 [2]: 2 µg/mL (≈ 1.38 µM) | MIC90 [2]: 2 µg/mL (≈ 1.38 µM) | MIC50 [3]: 1 µg/mL (≈ 0.69 µM) | MIC90 [3]: 2 µg/mL (≈ 1.38 µM) | MIC (S. aureus Giorgio [4]): 2 µg/mL (≈ 1.38 µM) | MIC (S. pneumoniae ATCC49619 [5]): 0.5 µg/mL (≈ 0.345 µM) | MIC (MRSA CCARM 3167 [6]): 2 µg/mL (≈ 1.38 µM) | MIC (VRE 3 [7]): 64 µg/mL (≈ 44.2 µM) | time-kill activity (S. aureus Giorgio [8]): bactericidal (considered bactericidal if the original inoculum was reduced by 3 log CFU/mL (99.9%) at each concentration) | time-kill activity (S. pneumoniae ATCC49619 [9]): bactericidal (considered bactericidal if the original inoculum was reduced by 3 log CFU/mL (99.9%) at each concentration) | time-kill activity (MRSA CCARM 3167 [10]): bactericidal (considered bactericidal if the original inoculum was reduced by 3 log CFU/mL (99.9%) at each concentration) | antibacterial effect in thigh infection model (S. aureus Giorgio [14]): bacteriostatic activity | in vivo effect (bacteriostatic or bactericidal) (S. pneumoniae ATCC49619 [12]; 4 mg/kg bid s.c.): bacteriostatic | in vivo effect (bacteriostatic or bactericidal) (S. pneumoniae ATCC49619 [12]; 20 mg/kg bid s.c.): bactericidal | reduction of the starting bacterial burden compared to the 2-h control group (S. pneumoniae ATCC49619 [12]): 1.46 log10 CFU/lung | in vivo effect (S. aureus; high doses of 20–320 mg/kg bid): bactericidal effects | in vivo effect (S. aureus; low doses of 0.3–5 mg/kg bid): bacteriostatic effects | bound to plasma proteins [13]: 10–50%
